The nature of series [1]: Cytotoxicity against african green monkey Vero cells after 3 days by MTS assay. In kind it is cell-based. As to conditions: chlorocebus sabaeus. (In general: Tetrazolium dyes change colour on reduction, which living cells bring about.)
The subject of another series is Coxsackievirus B3. The series is described as follows: Antiviral activity against Coxsackievirus B3 infected in african green monkey […] assessed as inhibition of virus-induced cytopathic effect after 3 days by MTS assay. The class given is functional, organism-based. As to conditions: for EC50: Enterovirus B, 72 h. Background: Damage to the host cells serves as the signal in cytopathic effect assays.

Some results are limits rather than exact numbers.

As to `OCC1CC2CC1C(n1cnc3c(Cl)ncnc31)C2` (stereo not drawn), the CC50 (in general, the concentration at which the toxic effect on the cells reaches its halfway point) at 72 h in series [1] is greater than 50 µM. For the same compound, in the series on Coxsackievirus B3, the EC50 – broadly, the midpoint of the concentration-response curve – is 0.98 µM.

In series [1], `OCC1C2COC3C2OC1C3n1cnc2c(Cl)ncnc21` (stereo not drawn) returned a CC50 at 72 h greater than 50 µM. In the series with Coxsackievirus B3, the concentration for a half-maximal effect (EC50) was 1.86 µM.

As for `C[C@@H](NC(=O)c1cccc(-c2cnc(-c3cc4ccccc4cn3)[nH]2)c1)c1ccc(F)cc1`, the 50% cytotoxic concentration (CC50) at 72 h in series [1] is greater than 50 µM. Further, the concentration giving a half-maximal response (EC50) in the series with Coxsackievirus B3 amounted to 1.2 µM.

Consider `ClCC1C2COC3C2CC1C3n1cnc2c(Cl)ncnc21` (stereo not drawn), for which the half-maximal cytotoxic concentration (CC50) at 72 h in series [1] is greater than 50 µM. Besides, the half-maximal effective concentration (EC50) with Coxsackievirus B3 was 1 µM.

For `ClCC1C2COC3C2OC1C3n1cnc2c(Cl)ncnc21` (stereo not drawn), in series [1], the CC50 at 72 h was greater than 50 µM. In addition, the 50% effective concentration (EC50) with Coxsackievirus B3 came out at 0.88 µM.

The compound `OCC1C2COC3C2CC1C3n1cnc2c(Cl)ncnc21` (stereo not drawn) gave a half-maximal cytotoxic concentration (CC50) at 72 h in series [1] greater than 50 µM. The EC50 with Coxsackievirus B3 came to 1.13 µM.

Regarding `OCC1CC2CC1CC2n1cnc2c(Cl)ncnc21` (stereo not drawn), the half-maximal cytotoxic concentration (CC50) at 72 h in series [1] was greater than 50 µM. For the same compound, the EC50 in the series on Coxsackievirus B3 was 0.91 µM.

In series [1], `Clc1ncnc2c1ncn2[C@@H]1CC2CC1[C@@H](n1cnc3c(Cl)ncnc31)C2` gave a half-maximal cytotoxic concentration (CC50) at 72 h greater than 50 µM. The 50% effective concentration (EC50) in the series with Coxsackievirus B3 was determined as 7.83 µM.

In series [1], `Clc1ncnc2c1ncn2C[C@@H]1C[C@H]2CC[C@@H]1C2` (relative stereo) showed a CC50 at 72 h greater than 50 µM. Besides, in the series with Coxsackievirus B3, the EC90 (as a rule, the concentration at which the effect reaches the 90% level) stood at 9.43 µM and the 50% effective concentration (EC50) was 3.83 µM.

With `Clc1ncnc2c1ncn2[C@@H]1C[C@@H]2C[C@H]1[C@@H]1O[C@@H]21` (relative stereo), the CC50 at 72 h in series [1] was greater than 50 µM. In the series with Coxsackievirus B3, the EC90 is 3.46 µM and the concentration giving a half-maximal response (EC50) was found to be 1.03 µM.

The compound `O[C@H]1C[C@H]2C[C@@H]1C[C@@H]2n1cnc2c(Cl)ncnc21` (relative stereo) displayed a CC50 at 72 h in series [1] greater than 50 µM. Moreover, the concentration giving a half-maximal response (EC50) in the series with Coxsackievirus B3 was 2.44 µM.

`Clc1ncnc2c1ncn2[C@H]1C[C@H]2C[C@@H]1C[C@@H]2n1cnc2c(Cl)ncnc21` (relative stereo) gave a CC50 at 72 h in series [1] greater than 50 µM. In addition, the EC50 in the series with Coxsackievirus B3 is 22.5 µM.

In series [1], `Clc1ncnc2c1ncn2[C@H]1C[C@H]2C[C@@H]1c1ccccc12` (relative stereo) came in with a cytotoxic concentration (CC50) at 72 h greater than 50 µM. In the series with Coxsackievirus B3, the EC90 is greater than 50 µM and the EC50 worked out at 0.66 µM.

Turning to `Clc1ncnc2c1ncn2[C@H]1C[C@H]2C[C@@H]1c1cc3ccccc3cc12` (relative stereo), in series [1], the CC50 at 72 h is greater than 50 µM. In the series on Coxsackievirus B3, the EC90 was greater than 50 µM and the EC50 is greater than 50 µM.

As for `Clc1ncnc2c1ncn2[C@H]1C2C3C[C@H]1C[C@H]32` (relative stereo), in series [1], the CC50 at 72 h came to 43.9 µM. Moreover, in the series on Coxsackievirus B3, the EC50 was determined as 1.52 µM.

Compound `Clc1ncnc2c1ncn2[C@H]1C[C@H]2C[C@@H]1C[C@@H]2c1ccccc1` (relative stereo) came in with a CC50 at 72 h in series [1] of 17 µM. In the series with Coxsackievirus B3, the concentration giving a half-maximal response (EC50) worked out at 5.72 µM.

Consider `Clc1ncnc2c1ncn2C[C@H]1C[C@@H]2C=C[C@H]1C2` (relative stereo), for which the CC50 at 72 h in series [1] is greater than 50 µM. Besides, in the series with Coxsackievirus B3, the EC90 was found to be 8.49 µM and the EC50 was found to be 3.58 µM.

On to `CC1(C)[C@@H]2CC[C@@]1(C)[C@H](n1cnc3c(Cl)ncnc31)C2` (relative stereo), for which, in series [1], the CC50 at 72 h is greater than 50 µM. In the series on Coxsackievirus B3, the EC90 stood at 36.26 µM and the concentration giving a half-maximal response (EC50) came out at 3.47 µM.

Consider `CC1(C)[C@H]2CC[C@H](C2)[C@@H]1n1cnc2c(Cl)ncnc21` (relative stereo), for which, in series [1], the 50% cytotoxic concentration (CC50) at 72 h was greater than 50 µM. In the series on Coxsackievirus B3, the EC90 is greater than 50 µM and the EC50 amounted to 10.9 µM.

In series [1], `Clc1ncnc2c1ncn2[C@H]1C[C@@H]2C=C[C@H]1C2` (relative stereo) gave a CC50 at 72 h greater than 50 µM. Also, in the series on Coxsackievirus B3, the EC90 worked out at 5.87 µM and the EC50 turned out to be 2.43 µM.

The compound `F[C@H]1C[C@H]2C[C@@H]1C[C@@H]2n1cnc2c(Cl)ncnc21` (relative stereo) displayed a 50% cytotoxic concentration (CC50) at 72 h in series [1] greater than 50 µM. For the same compound, in the series on Coxsackievirus B3, the EC90 was 1.96 µM and the EC50 came to 0.95 µM.

In series [1], `O=C1C[C@@H]2C[C@H]1[C@H](n1cnc3c(Cl)ncnc31)C2` (relative stereo) registered a cytotoxic concentration (CC50) at 72 h greater than 50 µM. Moreover, the EC50 with Coxsackievirus B3 amounted to 1.57 µM.

For `O[C@@H]1C[C@H]2C[C@@H]1[C@H](n1cnc3c(Cl)ncnc31)C2` (relative stereo), in series [1], the CC50 at 72 h was greater than 50 µM. Also, the concentration for a half-maximal effect (EC50) in the series on Coxsackievirus B3 amounted to 1.3 µM.

`FC1(F)C[C@@H]2C[C@@H](n3cnc4c(Cl)ncnc43)[C@H]1C2` (relative stereo) had a CC50 at 72 h in series [1] greater than 50 µM. In the series on Coxsackievirus B3, the EC90 was 34.4 µM and the concentration for a half-maximal effect (EC50) came to 1.16 µM.

The compound `Clc1ncnc2c1ncn2[C@H]1[C@@H]2C[C@@H]3CO[C@H]1[C@H]3C2` (relative stereo) returned a cytotoxic concentration (CC50) at 72 h in series [1] greater than 50 µM. Also, the EC50 with Coxsackievirus B3 worked out at 1.27 µM.

For `O[C@@H]1[C@@H]2C[C@H]([C@@H]1O)[C@@H](n1cnc3c(Cl)ncnc31)C2` (relative stereo), the 50% cytotoxic concentration (CC50) at 72 h in series [1] was greater than 50 µM. Besides, in the series on Coxsackievirus B3, the EC90 came out at 36.52 µM and the EC50 is 2.26 µM.

In series [1], `O[C@@H]1C[C@H]2C[C@@H]1[C@@H](n1cnc3c(Cl)ncnc31)C2` (relative stereo) came in with a CC50 at 72 h of 47.9 µM. The concentration for a half-maximal effect (EC50) in the series on Coxsackievirus B3 is 1.1 µM.

The compound `Clc1ncnc2c1ncn2[C@H]1C[C@H]2C[C@@H]1[C@H](c1ccccc1)C2` (relative stereo) registered a CC50 at 72 h in series [1] of 13.4 µM. Besides, the half-maximal effective concentration (EC50) in the series on Coxsackievirus B3 worked out at 2.98 µM.

Take `Clc1ncnc2c1ncn2[C@H]1C[C@H]2C[C@@H]1[C@@H]1CCC[C@H]21` (relative stereo): in series [1], half-maximal cytotoxicity (CC50 at 72 h) was put at 43.4 µM. Also, the EC50 with Coxsackievirus B3 stood at 1.9 µM.

Consider `Clc1ncnc2c1ncn2[C@@H]1[C@@H]2C[C@@H]3[C@H]1CO[C@@H]3C2` (relative stereo), for which, in series [1], the CC50 at 72 h was greater than 50 µM. For the same compound, the EC50 in the series with Coxsackievirus B3 was determined as 1 µM.

`O=C1C[C@H]2C[C@@H]1C[C@@H]2n1cnc2c(Cl)ncnc21` (relative stereo): the CC50 at 72 h in series [1] was greater than 50 µM. For the same compound, in the series with Coxsackievirus B3, the EC90 is 1.78 µM and the EC50 was 0.9 µM.

Regarding `O[C@H]1C[C@@H]2C[C@@H]1C[C@H]2n1cnc2c(Cl)ncnc21` (relative stereo), the CC50 at 72 h in series [1] was greater than 50 µM. For the same compound, the concentration giving a half-maximal response (EC50) with Coxsackievirus B3 came to 1.05 µM.

`FC1(F)C[C@H]2C[C@H]1C[C@@H]2n1cnc2c(Cl)ncnc21` (relative stereo) yielded a CC50 at 72 h in series [1] greater than 50 µM. Also, the 50% effective concentration (EC50) in the series on Coxsackievirus B3 worked out at 1 µM.

The values above are taken from ChEMBL document CHEMBL1166016, “Design, synthesis, and biological evaluation of novel coxsackievirus B3 inhibitors” (Bioorg Med Chem, 2010).
